Common to all, as to type: physicochemical
Data set [1] in a line: Fluorescence spectrum / quantum efficiency of fluorescence (ICG in DMSO as standard). To be noted: both water and organic solvents; excitation 760 nm. The protocol:
The absorption spectra and fluorescence spectra (excitation wavelength 760 nm) of […] PBS, methanol, DMF, and chloroform solutions of comparative compound 1 (each containing 0.1% DMSO as cosolvent) were measured.

A short description of data set [2]: Absorption spectrum measurement. The settings on record: for Λabs. max: 0.1% DMSO as cosolvent; for maximum absorption wavelength: PBS (1% DMSO). As for the experimental part: The absorption spectrum of a […] PBS solution of comparative compound 2 (containing 0.1% DMSO as cosolvent) was measured.
The maximum absorption wavelength of compound 1 was 763 nm, and the maximum absorption wavelength of compound 4 was 732 nm.

A short description of data set [3]: Changes over time in the absorption spectrum in water (PBS). The settings on record: PBS solution, 0.1% DMSO as cosolvent.

SMILES strings stand for the structures.

`Cc1ccccc1C1=C2C=C/C(=[N+]3/CCc4ccccc43)C=C2[Si](C)(C)c2cc(N3CCc4ccccc43)ccc21` [comparative compound 1, 2-Me-Si-QSY21] registered a fluorescence quantum yield in data set [1] not above 0.001. In addition, the “absorption spectrum reached up to” value in data set [2] is reported as “up to 850 nm”. The Λabs. max in data set [2] (Chloroform) came to 790 nm; in data set [2] (DMF) it was 790 nm; in data set [2] (MeOH), 779 nm; in data set [2] (PBS) it was 764 nm.

Compound `Cc1cccc(C)c1C1=C2C=C/C(=[N+]3/CCCc4cc(S(=O)(=O)O)ccc43)C=C2[Si](C)(C)c2cc(N3CCCc4cc(S(=O)(=O)O)ccc43)ccc21` [compound 4, 2,6-diMe-SO3H Tetrahydroquinoline-Si-QSY21] had a maximum absorption wavelength in data set [2] of 732 nm.

Consider `Cc1cccc(C)c1C1=C2C=C/C(=[N+]3/CCc4cc(S(=O)(=O)O)ccc43)C=C2[Si](C)(C)c2cc(N3CCc4cc(S(=O)(=O)O)ccc43)ccc21` [compound 1, 2,6-diMe-SO3H Indoline-Si-QSY21], for which, in data set [3], the “changes over time in absorption in water (stability in water)” value (“changes over time in absorption in water” below) was “no decrease in absorption in water was observed”. The maximum absorption wavelength in data set [2] came to 763 nm.

Regarding `COc1cccc(OC)c1C1=C2C=C/C(=[N+]3/CCc4cc(S(=O)(=O)O)ccc43)C=C2[Si](C)(C)c2cc(N3CCc4cc(S(=O)(=O)O)ccc43)ccc21` [compound 2, 2,6-diOMe-SO3H Indoline-Si-QSY21], in data set [3], the “changes over time in absorption in water” value is recorded as “no decrease in absorption in water was observed”.

As for `Cc1ccccc1C1=C2C=C/C(=[N+]3/CCc4cc(S(=O)(=O)O)ccc43)C=C2[Si](C)(C)c2cc(N3CCc4cc(S(=O)(=O)O)ccc43)ccc21` [comparative compound 2, 2-Me-SO3H—Si-QSY21], the “changes over time in absorption in water” value in data set [3] is “a gradual decrease in absorption was observed in water”. In data set [2] (PBS solution, 0.1% DMSO), the “change in absorption wavelength due to introduction of a sulfone group” value is recorded as “no change in absorption wavelength”.

Source of the values: patent publication US10004815B2, “Near-infrared quenching group” (priority 2013, dated 2018).
